# Results from US20250154198A1, “PEPTIDE INHIBITORS OF INTERLEUKIN-23 RECEPTOR” (Zealand Pharma A/S, priority 2021, published 2025).
# *1 amine or outer side, *2 acyl side, *3 side chain or, on linkers, in order; H or OH if unused. Where a SMILES comes first, the peptide text is derived from it. Bridges are numbered along the chain shown (N, C = ends). [ ]: non-standard residue; d: D form. Pipz(1-CH2CO,4-CH2CH2NH) = O=C(CN1CCN(CCN[*:1])CC1)[*:2]; αMeAla(3-pyridyl) = C[C@](N)(Cc1cccnc1)C(=O)O; Phe(3,4-Me2) = Cc1ccc(C[C@H](N)C(=O)O)cc1C; 2Nal = N[C@@H](Cc1ccc2ccccc2c1)C(=O)O; AEF = NCCOc1ccc(C[C@H](N)C(=O)O)cc1; X1 = O=C(Cc1ccc(CN[*:1])cc1)[*:2]; αMeL = CC(C)C[C@](C)(N)C(=O)O; CH2COCH2 = O=C(C[*:1])C[*:2]; αMeV = CC(C)[C@](C)(N)C(=O)O; Dab = NCC[C@H](N)C(=O)O; Ahx = NCCCCCC(=O)O
# How the values were obtained:
# [1] = target: T1, human IL-23R (Homo sapiens, UniProt Q5VWK5); assay: Binding assay (NanoBRET displacement of fluorophore-labelled reference compound) for estimating binding affinity to human IL-23R; details: Table 3-1; read-out: Ki hIL-23R
# T1 construct: UniProtKB—Q5VWK5, amino acids 22-629; secretion signal of the plasmid (Promega N1371); expressed in transfected cells
# T1 sequence (Q5VWK5 22-629): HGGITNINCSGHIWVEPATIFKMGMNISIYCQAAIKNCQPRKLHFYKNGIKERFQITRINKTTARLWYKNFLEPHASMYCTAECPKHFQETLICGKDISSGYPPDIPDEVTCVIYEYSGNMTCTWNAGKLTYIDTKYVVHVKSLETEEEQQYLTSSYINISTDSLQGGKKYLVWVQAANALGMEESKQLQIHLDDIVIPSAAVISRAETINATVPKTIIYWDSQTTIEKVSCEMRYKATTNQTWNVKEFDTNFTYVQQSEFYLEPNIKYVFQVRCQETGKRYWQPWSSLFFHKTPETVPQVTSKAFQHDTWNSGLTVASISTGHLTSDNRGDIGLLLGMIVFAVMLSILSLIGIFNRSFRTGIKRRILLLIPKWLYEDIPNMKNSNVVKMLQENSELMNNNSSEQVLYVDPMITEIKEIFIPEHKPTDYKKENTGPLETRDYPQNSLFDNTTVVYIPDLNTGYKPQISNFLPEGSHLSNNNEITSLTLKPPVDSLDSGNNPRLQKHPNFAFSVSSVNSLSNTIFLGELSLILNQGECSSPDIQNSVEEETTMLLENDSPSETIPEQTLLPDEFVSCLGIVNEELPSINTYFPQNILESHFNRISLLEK
# [2] = Peptide stability in simulated intestinal fluid (SIF); assay type: in vitro ADME; details: Table 3-2, porcine pancreatin, pH 6.8, 37° C., 10 μM; for remaining at 4 h, 10 μM / remaining at 1 h, 10 μM: pig, simulated intestinal fluid (SIF) with porcine pancreatin; for remaining at 4 h, 10 μM: read-out: SIF (% remaining 4 h); for remaining at 1 h, 10 μM: read-out: SIF (% remaining 1 h)
# Description: Determination of Peptide Stability in Simulated Gastric Fluid (SGF) and Simulated Intestinal Fluid (SIF)
# SGF was prepared by dissolving sodium chloride (0.2 g) in 50 mL of water. A volume of 0.7 mL of 10 M HCl was added to adjust the pH of the solution to 1.2 and the volume made up to 100 mL with water. […] SIF was prepared by dissolving monobasic potassium phosphate (0.68 g) in 50 mL of water and adjusting the pH to 6.8 with 1 M NaOH. The volume was subsequently made up to 100 mL with water. 200 mg porcine pancreatin (P1625, Sigma Aldrich) was gently dissolved into 20 mL preheated (37° C.) solution (10 g/L) immediately prior to the incubation.
# The incubation was performed at 37° C. with gentle shaking. […] After the last timepoint, the sampling plate was mixed for 10 min on a shaking table and centrifuged 10 min at 2200 g. 70 μL resulting supernatant was diluted with 150 μL water, mixed and centrifugated before analysis by liquid chromatography high resolution mass spectrometry. […] Percent remaining at each timepoint was calculated relative to timepoint zero based on absolute peak areas.
Structure (SMILES),Ki [1] [nM],"remaining at 4 h, 10 μM [2] [%]","remaining at 1 h, 10 μM [2] [%]",SIF (% remaining 4 h) [2] [%]
"CC(C)C[C@]1(C)NC(=O)[C@H](Cc2ccc3ccccc3c2)NC(=O)[C@H](Cc2ccc(OCCN)cc2)NC(=O)[C@@H]2CSCC(=O)CSC[C@H](NC(=O)[C@H](CO)NC(=O)CN3CCN(CCNC(=O)CC[C@@H](C(=O)N[C@H](CCCNC(=N)N)C(N)=O)NC1=O)CC3)C(=O)N[C@@H](Cc1c[nH]c3ccccc13)C(=O)N[C@@H](CCC(N)=O)C(=O)N2 [Compound 90, [(4-(2-Aminoethyl)-piperazine-1-yl)-acetyl](1c)*SC(2a)WQC(2a)[Y(2-aminoethoxy)][2-Nal][2-Me-Leu]E(1c)[{d}R]-[NH2]] ([Pipz(1-CH2CO,4-CH2CH2NH)]SCWQC[AEF][2Nal][αMeL]E[dR]-NH2; linker 3-6 via CH2COCH2; lactam N-10)",0.706,67,–,–
"CC(C)C[C@]1(C)NC(=O)[C@H](Cc2ccc3ccccc3c2)NC(=O)[C@H](Cc2ccc(OCCN)cc2)NC(=O)[C@@H]2CSCC(=O)CSC[C@H](NC(=O)[C@H](CO)NC(=O)CCCCCNC(=O)CC[C@@H](C(=O)N[C@H](CCCNC(=N)N)C(N)=O)NC1=O)C(=O)N[C@@H](Cc1c[nH]c3ccccc13)C(=O)N[C@@H](CCC(N)=O)C(=O)N2 [Compound 87, [6-Aminohexanoyl](1c)*SC(2a)WQC(2a)[Y(2-aminoethoxy)][2-Nal][2-Me-Leu]E(1c)[{d}R]-[NH2]] ([Ahx]SCWQC[AEF][2Nal][αMeL]E[dR]-NH2; linker 3-6 via CH2COCH2; lactam N-10)",0.439,–,95,–
"CC(C)C[C@]1(C)NC(=O)[C@H](Cc2ccc3ccccc3c2)NC(=O)[C@H](Cc2ccc(OCCN)cc2)NC(=O)[C@@H]2CCC(=O)NCC[C@H](NC(=O)[C@H](CO)NC(=O)Cc3ccc(cc3)CNC(=O)CC[C@@H](C(=O)N[C@@H](CCN)C(=O)N[C@@H](Cc3cccnc3)C(N)=O)NC1=O)C(=O)N[C@@H](Cc1c[nH]c3ccccc13)C(=O)N[C@@H](CCC(N)=O)C(=O)N2 (relative stereo) [Compound 123, [4-Aminomethyl-phenylacetyl](1c)*S[Dab](2c)WQE(2c)[Y(2-aminoethoxy)][2-Nal][2-Me-Leu]E(1c)[Dab][3-(3-Pyridyl)-Ala]-[NH2]]",0.00783,4,46,–
"CC(=O)N[C@H]1CCCCNC(=O)CC[C@@H](C(=O)N[C@@H](CCCNC(=N)N)C(N)=O)NC(=O)[C@@H](CC(C)C)NC(=O)[C@H](Cc2ccc3ccccc3c2)NC(=O)[C@H](Cc2ccc(OCCN)cc2)NC(=O)[C@@H]2CSCC(=O)CSC[C@H](NC(=O)[C@H](CO)NC1=O)C(=O)N[C@@H](Cc1c[nH]c3ccccc13)C(=O)N[C@@H](CCC(N)=O)C(=O)N2 [Compound 48, [Ac]-K(1c)SC(2a)WQC(2a)[Y(2-aminoethoxy)][2-Nal][{d}L]E(1c)R-[NH2]] (Ac-KSCWQC[AEF][2Nal][dL]ER-NH2; lactam 1-10; linker 3-6 via CH2COCH2)",17,0,0,–
"CC(=O)N[C@H]1CCCCNC(=O)CC[C@@H](C(=O)N[C@H](CCCNC(=N)N)C(N)=O)NC(=O)[C@](C)(CC(C)C)NC(=O)[C@H](Cc2ccc3ccccc3c2)NC(=O)[C@H](Cc2ccc(OCCN)cc2)NC(=O)[C@@H]2CSCC(=O)CSC[C@H](NC(=O)[C@H]([C@@H](C)O)NC1=O)C(=O)N[C@@H](Cc1c[nH]c3ccccc13)C(=O)N[C@@H](CCC(N)=O)C(=O)N2 [Compound 85, [Ac]-K(1c)TC(2a)WQC(2a)[Y(2-aminoethoxy)][2-Nal][2-Me-Leu]E(1c)[{d}R]-[NH2]] (Ac-KTCWQC[AEF][2Nal][αMeL]E[dR]-NH2; lactam 1-10; linker 3-6 via CH2COCH2)",0.321,74,–,–
"CC(=O)N[C@H]1CCCCNC(=O)CC[C@@H](C(=O)N[C@@H](CCCNC(=N)N)C(N)=O)NC(=O)[C@](C)(CC(C)C)NC(=O)[C@H](Cc2ccc3ccccc3c2)NC(=O)[C@H](Cc2ccc(OCCN)cc2)NC(=O)[C@@H]2CSCC(=O)CSC[C@H](NC(=O)[C@H](CO)NC1=O)C(=O)N[C@@H](Cc1c[nH]c3ccccc13)C(=O)N[C@@H](CCC(N)=O)C(=O)N2 [Compound 47, [Ac]-K(1c)SC(2a)WQC(2a)[Y(2-aminoethoxy)][2-Nal][2-Me-Leu]E(1c)R-[NH2]] (Ac-KSCWQC[AEF][2Nal][αMeL]ER-NH2; lactam 1-10; linker 3-6 via CH2COCH2)",–,0,2,–
"CC[C@H](C)[C@@H]1NC(=O)Cc2ccc(cc2)CNC(=O)CC[C@@H](C(=O)N[C@@H](CCN)C(=O)N[C@@](C)(Cc2cccnc2)C(N)=O)NC(=O)[C@](C)(C(C)C)NC(=O)[C@H](Cc2ccc(C)c(C)c2)NC(=O)[C@H](Cc2ccc(OC)cc2)NC(=O)[C@@H]2CCNC(=O)CC[C@H](NC1=O)C(=O)N[C@@H](Cc1c[nH]c3ccccc13)C(=O)N[C@@H](CCC(N)=O)C(=O)N2 [Compound 166, [4-Aminomethyl-phenylacetyl](1c)*IE(2c)WQ[Dab](2c)[Y(Me)][F(3,4-Me)][2-Me-Val]E(1c)[Dab][2-Me-3-(3-Pyridyl)-Ala]-[NH2]] ([X1]IEWQ[Dab]Y(Me)[Phe(3,4-Me2)][αMeV]E[Dab][αMeAla(3-pyridyl)]-NH2; lactam 3-6, N-10)",–,86,–,–
"CSCC[C@H](NC(=O)[C@@H]1CSCC(=O)CSC[C@H](NC(=O)[C@@H](N)CCC(=O)O)C(=O)N[C@@H](Cc2c[nH]c3ccccc23)C(=O)N[C@@H](CC(C)C)C(=O)N[C@H]2CSCC(=O)CSC[C@H](NC(=O)[C@H](CC(N)=O)NC(=O)[C@H](CCCNC(=N)N)NC(=O)[C@H](Cc3ccc(O)cc3)NC(=O)[C@H](Cc3ccc(O)cc3)NC2=O)C(=O)N[C@@H](CC(N)=O)C(=O)N1)C(N)=O (single isomer, unassigned) [I4 (isomer 3), H-EC(4a)WLC(5a)YYRNC(5a)NC(4a)M-[NH2], reference compound]",–,–,–,0
"CC(C)C[C@@H]1NC(=O)[C@H](Cc2c[nH]c3ccccc23)NC(=O)[C@H](Cc2c[nH]c3ccccc23)NC(=O)[C@@H]2CSCC(=O)CSC[C@H](NC(=O)[C@H]([C@@H](C)O)NC(=O)[C@@H](NC(=O)CN)CSCC(=O)CSC[C@@H](C(=O)N[C@@H](CO)C(N)=O)NC1=O)C(=O)N[C@@H](Cc1c[nH]c3ccccc13)C(=O)N[C@@H](CCC(=O)O)C(=O)N2 (single isomer, unassigned) [I1 (isomer 3), H-GC(1a)TC(2a)WEC(2a)WWLC(1a)S-[NH2], reference compound]",–,–,–,0
